For assay [1], the system named is Ba/F3 cells (WT, FLT3 WT, FLT3 ITD, FLT3 D835Y). Kind of assay: WST-1 and 3H-Thymidine incorporation cell proliferation assays, all Ba/F3 lines. Format: cell-based, Murine. The note with it: by 3 μM; regardless of cell line. An excerpt:
Murine pro-B lymphocyte line Ba/F3 wild type (Ba/F3 WT), and Ba/F3 lines stably transduced with expression vectors that encoded wild-type human FLT3 (Ba/F3 FLT3 WT cells) or human FLT3 containing an ITD mutation (Ba/F3-ITD cells) or D835Y (Ba/F3 D835Y cells) point mutations, which lead to constitutively functional activation of the protein, were obtained from Bjørn Tore Gjertsen (Department of Clinical Science, Hematology Section, University of Bergen, Bergen, Norway). […]
Proliferation of cells was assessed using the tetrazolium salt WST-1 that is cleaved to chromogenic formazan dye by mitochondrial dehydrogenases in viable cells. […] The absorbance of the samples was measured by Spectramax Plus 384 Spectrophotometer (Molecular Devices Corp., Sunnyvale, Calif., USA) and the percentage of proliferation was calculated by using the following formula: (Arbitrary units (AU) of treated sample−AU of background control)/(AU of untreated sample−AU of background control).
Following 18 hours incubation, the DNA was harvested and radioactivity was assessed by liquid scintillation counting (Packard Microplate Scintillation and Luminescence counter, Perkin Elmer Life and Analytical Science, Inc., Waltham, USA).
Background: Tetrazolium assays rely on reduction of a dye to a coloured formazan, in cell work by metabolically active cells.

For another assay, the target named is T1, TEK(Y897S) (Homo sapiens, UniProt Q02763, Y897S).
T1 construct: purchased EMD Millipore Corp. (KinaseProfiler service)
T1 sequence (Q02763 23-1124 Y897S): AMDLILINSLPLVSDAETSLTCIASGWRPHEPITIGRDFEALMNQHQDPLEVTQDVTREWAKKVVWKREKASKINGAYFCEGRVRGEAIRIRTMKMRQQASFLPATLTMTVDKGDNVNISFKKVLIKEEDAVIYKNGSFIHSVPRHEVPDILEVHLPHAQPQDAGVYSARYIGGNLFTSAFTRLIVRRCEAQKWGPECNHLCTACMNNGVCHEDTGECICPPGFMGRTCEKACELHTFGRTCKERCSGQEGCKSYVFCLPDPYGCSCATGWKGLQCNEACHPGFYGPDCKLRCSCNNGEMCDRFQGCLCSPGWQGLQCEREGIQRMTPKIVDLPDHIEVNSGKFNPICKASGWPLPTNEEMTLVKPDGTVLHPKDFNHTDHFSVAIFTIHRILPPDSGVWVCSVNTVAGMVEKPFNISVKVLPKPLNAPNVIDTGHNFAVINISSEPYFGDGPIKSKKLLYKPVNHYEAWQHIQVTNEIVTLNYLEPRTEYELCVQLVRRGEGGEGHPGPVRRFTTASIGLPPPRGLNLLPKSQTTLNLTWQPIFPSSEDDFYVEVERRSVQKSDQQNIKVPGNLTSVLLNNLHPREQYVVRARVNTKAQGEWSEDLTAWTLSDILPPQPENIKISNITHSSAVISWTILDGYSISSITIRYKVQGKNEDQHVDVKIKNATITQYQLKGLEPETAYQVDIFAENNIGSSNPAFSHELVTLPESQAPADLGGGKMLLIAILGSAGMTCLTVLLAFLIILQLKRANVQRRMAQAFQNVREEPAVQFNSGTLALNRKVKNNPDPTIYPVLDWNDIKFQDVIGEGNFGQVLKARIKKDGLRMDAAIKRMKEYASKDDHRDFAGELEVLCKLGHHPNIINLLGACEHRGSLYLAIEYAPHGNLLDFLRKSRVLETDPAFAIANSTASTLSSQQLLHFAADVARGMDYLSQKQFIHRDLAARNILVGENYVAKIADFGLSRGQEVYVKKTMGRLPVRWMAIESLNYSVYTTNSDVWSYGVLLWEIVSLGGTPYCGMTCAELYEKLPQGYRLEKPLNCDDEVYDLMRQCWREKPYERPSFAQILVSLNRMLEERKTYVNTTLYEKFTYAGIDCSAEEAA
Kind of assay: KinaseProfiler kinase activity assay. The note with it: ATP at Km. It counts as biochemical. An excerpt:
(§1) A summary is provided below.

For another assay, the target named is T2, TEK(R849W) (Homo sapiens, UniProt Q02763, R849W).
T2 construct: purchased EMD Millipore Corp. (KinaseProfiler service)
T2 sequence (Q02763 23-1124 R849W): as the sequence (Q02763 23-1124 Y897S) above, with R827W, S875Y counted along it
Kind of assay: KinaseProfiler kinase activity assay. It counts as biochemical. Conditions: ATP at Km.
From the text: as §1

The record followed here is patent publication US9801880B2, “Use of kinase inhibitors” (BerGenBio AS, priority 2013, dated 2017).

For orientation: IC50 means the concentration that gives 50% inhibition. A lower IC50 goes with higher potency.

For `Nc1nc(Nc2ccc3c(c2)CC[C@@H](N2CCCC2)CC3)nn1-c1cc2c(nn1)-c1ccccc1CCC2` [Compound A, 1-(6,7-dihydro-5H-benzo[6,7]cyclohepta[1,2-c]pyridazine-3-yl)-N^3-(7-(S)-(pyrrolidin-1-yl)-6,7,8,9-tetrahydro-5H-benzo[7]annulene-2-yl)-1H-1,2,4-triazole-3,5-diamine], the “cell death in proliferation assays” value in assay [1] was “all cells are dead”. Further, the IC50 against TEK(Y897S) worked out at 13 nM; against TEK(R849W), 22 nM.
